{
  "source": "patent US4871774A",
  "about": "“Medical treatment” (The Boots Company PLC, priority 1987, dated 1989)",
  "system": "dopamine reuptake; unilateral nigrostriatal lesioned rats",
  "test": "Ipsilateral circling behaviour of unilateral nigrostriatal (6-OHDA) lesioned rats",
  "type": "in vivo, rat (CD)",
  "settings": "methamphetamine challenge 2 mg/kg intraperitoneal; selected rats",
  "source_text": "The two tracts of the nigrostriatal dopamine system are independent and are located on either side of the midline of the brain. When one tract is destroyed using the specific neurotoxin, 6-hydroxydopamine (6-OHDA), rats will display characteristic circling behaviour after injection of dopaminergic drugs. The direction of rotation, however, is dependent on the stimulus employed. Drugs which inhibit dopamine reuptake can only function on the unlesioned side of the brain and induce circling towards the lesion site (known as ipsilateral circling.)\nMale CD rats (250-300 g: Charles River) were anaesthetised with `Equithesin` type anaesthetic (3.2 ml/kg i.p.) and secured in a stereotaxic frame (David Kopf Small Animal Stereotaxic Instrument DKI 900). After shaving the area, a saggital incision of 1.5-2 cm was made and skin flaps dissected from the skull. A small hole was made in the skull, using a No. 6 dental burr, to allow the tip of a 30 s.w.g. stainless steel cannula to be inserted to the left substantia nigra. This was located by using the following co-ordinates, using skull landmark bregma as the zero reference point; rostral-caudal -2.8; medial-lateral +2.0; dorsal-ventral -8.0 from the surface of the dura, all co-ordinates measured in millimetres. This system of co-ordinates is a modification of the de Groot system as described by Pellegrino et al (A stereotaxic atlas of the rat brain, 2nd Edition, Plenum Press 1979). 6-Hydroxydopamine HBr (2 μg/μl, as base: Sigma Chemical Co.) was injected into the left substantia nigra at 1 μl/min; a total of 8 μg was administered over a period of 4 minutes using an infusion pump (Braun `Perfusor` ED2). After removal of the cannula, the skin flaps were joined with a single everted suture and the animal allowed to recover.\nAfter 21 days, the circling behaviour of the rats was examined. They were placed, individually, in circular plastic arenas (30 cm diameter×12 cm high) for 1 hour, with no access to food or water during this period. […] One `turn` consisted of rotation through 360° in either direction. As rats were always lesioned on the left side of the brain, anticlockwise turns were ipsilateral.\nControl values were determined for all rats by observing their spontaneous circling behaviour in the arenas without prior dosing. The mean turns per minute was always less than 1.\nThe rats were challenged with an intraperitoneal dose of methamphetamine (2 mg/kg) and immediately placed in the arenas. In these experiments circling behaviour was monitored during two periods, 0-1 h and 4-5 h after dosing. Rats giving a mean of more than 5 ipsilateral turns per minute during the first hour in response to methamphetamine were used in subsequent tests. Following selection, the rats were used in groups of 5 or more rats to test the drug under investigation.",
  "data": [
    {"smiles": "CN[C@@H](C)Cc1ccccc1", "note": "[methamphetamine, reference compound]", "values": [
      {"measurement": "mean response of the group, ipsilateral turns per minute", "result": "more than 10 ipsilateral turns per minute"}
    ]}
  ]
}
